Laboratory results from PubChem BioAssay (NCI).
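Five concentrations, 48 hours, 96-well plates. The concentration for 50% growth inhibition is given as GI50. TGI: concentration producing complete growth inhibition.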

Experiments:
Assay in all cases: NCI tumour cell line growth inhibition, 48 h
786-0 renal = test system: 786-0 renal
BT-549 breast = test system: BT-549 breast
COLO 205 colon = test system: COLO 205 colon
DU-145 prostate = test system: DU-145 prostate
EKVX NSCLC = test system: EKVX NSCLC
HOP-62 NSCLC = test system: HOP-62 NSCLC
IGROV1 ovarian = test system: IGROV1 ovarian
KM12 colon = test system: KM12 colon
LOX IMVI melanoma = test system: LOX IMVI melanoma
M14 melanoma = test system: M14 melanoma
MCF7 breast = test system: MCF7 breast
NCI-H226 lung = test system: NCI-H226 lung
NCI-H460 lung = test system: NCI-H460 lung
NCI-H522 lung = test system: NCI-H522 lung
NCI/ADR-RES ovarian = test system: NCI/ADR-RES ovarian
SW-620 colon = test system: SW-620 colon
T-47D breast = test system: T-47D breast

SMILES	TGI (786-0 renal) [µM]	TGI (BT-549 breast) [µM]	TGI (COLO 205 colon) [µM]	TGI (DU-145 prostate) [µM]	TGI (EKVX NSCLC) [µM]	TGI (HOP-62 NSCLC) [µM]	TGI (IGROV1 ovarian) [µM]	TGI (KM12 colon) [µM]	TGI (LOX IMVI melanoma) [µM]	TGI (M14 melanoma) [µM]	TGI (MCF7 breast) [µM]	TGI (NCI-H226 lung) [µM]	TGI (NCI-H460 lung) [µM]	TGI (NCI-H522 lung) [µM]	TGI (NCI/ADR-RES ovarian) [µM]	TGI (SW-620 colon) [µM]	TGI (T-47D breast) [µM]	GI50 (SW-620 colon) [µM]	GI50 (DU-145 prostate) [µM]	GI50 (HOP-62 NSCLC) [µM]
NNCCc1n[nH]c(=O)n1N	> 100	> 100	> 100	> 100	> 100	> 100	> 100	> 100	> 100	> 100	> 100	> 100	> 100	> 100	> 100	> 100	> 100	–	–	–
O=C1/C(=C/c2ccccc2)CCC/C1=C\c1ccc(O)c(CN2CCCCC2)c1	3.4	10.5	15.4	7.44	18.1	32	11.2	4.98	4.08	26.1	19.2	16.9	16.5	7.22	8.44	5.94	17.6	–	–	–
O=C(Cc1ccccc1)NCCCN(CCCCN(CCCNC(=O)Cc1ccccc1)C(=O)OCc1ccccc1)C(=O)OCc1ccccc1	> 100	> 100	> 100	> 100	> 100	> 100	> 100	> 100	> 100	> 100	> 100	> 100	> 100	12.2	> 100	> 100	> 100	–	–	–
O=C(/C=C/c1ccccc1)CSc1nc2ccc(I)cc2c(=O)n1Cc1ccccc1	35.9	> 100	> 67.8	> 100	> 37.2	59.1	> 68	> 100	> 100	> 100	> 100	> 84.4	> 100	> 89.5	> 100	> 100	> 100	–	–	–
Nc1nc(N)c2[nH]cnc2n1 (tested in a mixture with another compound)	> 100	> 100	> 100	> 100	60.1	> 100	> 100	> 100	> 100	36.2	21.7	> 100	63.4	54.2	> 100	> 100	40	–	–	–
Cn1c(=O)c2c(ncn2CCCCOc2ccc3c(c2)[n+]([O-])nc(N)[n+]3[O-])n(C)c1=O	> 100	70.6	43.2	> 100	> 100	> 100	67.6	> 100	> 100	> 100	> 100	79.6	> 100	> 100	> 100	> 100	12.1	–	–	–
COC(=O)C1=C(C)NC(C)=C(C(=O)OC)C1c1cccc(NO)c1	28.3	32.5	30.3	> 100	70.9	> 100	30.4	29.4	29.9	33.2	38.5	40.7	31.4	20.8	42.3	28.5	55.4	–	–	–
CC(C)(CO)NC(=O)Nc1c(C(F)(F)F)cc(-c2ccccc2)[nH]c1=O	> 100	> 100	> 100	> 100	> 100	> 100	> 100	> 100	> 100	> 100	> 100	> 100	> 100	> 100	> 100	> 100	> 100	–	–	–
CCOC(=O)C1(C/C=C\CBr)CCCCCCCCCCC1=O (stereo not given)	> 53	31.7	33.7	31.9	34.4	34.7	11.5	28.8	1.66	55	42.3	16.6	33	1.04	39.2	30.1	29.7	–	–	–
CCCCOCCOC1=CC(=O)c2c(O)ccc(O)c2C1=O	3.03	2.98	2.36	3.17	3.08	1.8	3.35	3.14	3.15	2.18	3.15	3.14	3.43	2.93	4.74	2.84	4.03	–	–	–
CCOP(=O)(OCC)C1=C(c2ccccc2)OC(N)=C(C#N)C1c1ccc(Cl)cc1 (stereo not given)	> 100	> 100	> 100	> 100	> 100	> 100	> 100	> 100	> 100	> 100	> 100	> 100	> 100	> 100	> 100	> 100	> 100	–	–	–
CCOC(=O)/C=C(\C(=O)OCC)n1ccc(=O)n(CC(=O)OCC)c1=O	4.1	29.1	3.16	31.1	35.5	38.7	19.3	30.8	5.23	5.48	9.73	12.8	32.2	3.25	60.8	2.72	7.39	1.42	–	–
Clc1nc(NCCc2ccccc2)c2ncn(-c3ccccc3)c2n1	31.4	60	50.6	83.4	68.3	67.2	> 100	51.3	43.1	49.7	60.8	58.9	33.7	56.4	57.9	> 100	98.2	–	–	–
O=C1C(=C(I)I)c2ccccc2-c2ccccc21	4.33	15.5	3.66	11.2	9.45	24.3	17.6	24.6	5.26	9.15	13.8	36.4	33.9	2.61	12.2	8.13	> 100	–	–	–
CCOc1ccc(NCC2CC/C(=C\c3ccc(O)cc3)C2=O)cc1 (stereo not given)	18	25.6	28.6	> 59.9	39.5	> 67.1	33.9	26.8	16.8	36	18.1	> 61.2	54.2	11.7	36.9	27.1	62.2	–	–	–
CCOc1cc2c(cc1O)/C(=N/NS(=O)(=O)c1ccc(C)cc1)C[C@@H]1[C@@H]2CC[C@]2(C)[C@@H](O)CC[C@@H]12	> 100	> 100	17.4	> 100	> 100	> 100	> 100	> 100	> 100	> 100	> 100	68.7	> 100	> 100	> 100	> 100	> 100	–	14.9	5.14
